The text below walks through data of ChEMBL document CHEMBL1909046, “DrugMatrix in vitro pharmacology data”.

The nature of assay [1]: DRUGMATRIX: Calcium Channel Type L, Benzothiazepine radioligand binding (ligand: [3H] Diltiazem). The format is cell membranes, Rattus norvegicus, Wistar, Brain, Membrane. Particulars: Not Active = under 50% inhibition at 10 µM.
Assay [2] deals with Prostaglandin G/H synthase 1 (Homo sapiens, UniProt P23219). Briefly: biochemical. The format is tissue-based, Platelet. Particulars: platelet.
Chain of Prostaglandin G/H synthase 1 (P23219 whole entry): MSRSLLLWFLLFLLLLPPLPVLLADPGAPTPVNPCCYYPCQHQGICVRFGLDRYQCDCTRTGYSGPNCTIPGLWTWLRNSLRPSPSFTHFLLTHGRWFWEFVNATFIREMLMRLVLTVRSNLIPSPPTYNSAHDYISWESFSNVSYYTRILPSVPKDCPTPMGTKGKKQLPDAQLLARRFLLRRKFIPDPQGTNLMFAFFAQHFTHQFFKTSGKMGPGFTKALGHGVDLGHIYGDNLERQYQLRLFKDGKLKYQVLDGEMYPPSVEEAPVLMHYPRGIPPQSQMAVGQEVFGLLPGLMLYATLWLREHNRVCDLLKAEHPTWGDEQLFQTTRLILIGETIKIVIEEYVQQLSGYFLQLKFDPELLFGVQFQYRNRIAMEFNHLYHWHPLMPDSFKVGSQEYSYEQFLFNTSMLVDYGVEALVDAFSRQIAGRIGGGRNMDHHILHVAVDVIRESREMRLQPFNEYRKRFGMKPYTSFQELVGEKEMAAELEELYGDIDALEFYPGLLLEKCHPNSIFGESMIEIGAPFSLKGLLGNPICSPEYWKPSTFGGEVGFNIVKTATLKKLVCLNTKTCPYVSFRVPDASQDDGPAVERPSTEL
Assay [3] concerns the target 5-hydroxytryptamine receptor 4 (Cavia porcellus, UniProt O70528). It is filed as cell membranes, Dunkin-Hartley, Striatum, Membrane. Also: in other assays of this panel Not Active means under 50% inhibition at 10 µM.
The target in another assay is Adenosine receptor A2a (Homo sapiens, UniProt P29274). Briefly: DRUGMATRIX: Adenosine A2A radioligand binding (ligand: […]). The format is cell membranes, HEK293, Membrane. As to conditions: hek293; Not Active = under 50% inhibition at 10 µM.
Chain of Adenosine receptor A2a (P29274 whole entry): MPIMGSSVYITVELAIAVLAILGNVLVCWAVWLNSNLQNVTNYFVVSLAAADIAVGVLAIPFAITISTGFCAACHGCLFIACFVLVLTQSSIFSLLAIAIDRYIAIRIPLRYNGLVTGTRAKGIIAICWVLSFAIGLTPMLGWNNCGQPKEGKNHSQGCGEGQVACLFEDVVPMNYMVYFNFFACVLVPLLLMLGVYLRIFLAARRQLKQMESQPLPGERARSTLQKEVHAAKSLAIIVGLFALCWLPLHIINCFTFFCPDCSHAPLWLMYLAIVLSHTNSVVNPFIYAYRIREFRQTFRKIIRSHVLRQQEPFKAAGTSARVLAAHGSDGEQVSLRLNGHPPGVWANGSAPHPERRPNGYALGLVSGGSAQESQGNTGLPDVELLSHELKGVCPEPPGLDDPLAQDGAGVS
Assay [4] in a line: DRUGMATRIX: GABAA, Chloride Channel, TBOB radioligand binding (ligand: [3H] TBOB). It is filed as cell membranes, Rattus norvegicus, Wistar, Cerebral cortex, Membrane. Particulars: Not Active = under 50% inhibition at 10 µM.

Chain of 5-hydroxytryptamine receptor 4 (O70528 whole entry): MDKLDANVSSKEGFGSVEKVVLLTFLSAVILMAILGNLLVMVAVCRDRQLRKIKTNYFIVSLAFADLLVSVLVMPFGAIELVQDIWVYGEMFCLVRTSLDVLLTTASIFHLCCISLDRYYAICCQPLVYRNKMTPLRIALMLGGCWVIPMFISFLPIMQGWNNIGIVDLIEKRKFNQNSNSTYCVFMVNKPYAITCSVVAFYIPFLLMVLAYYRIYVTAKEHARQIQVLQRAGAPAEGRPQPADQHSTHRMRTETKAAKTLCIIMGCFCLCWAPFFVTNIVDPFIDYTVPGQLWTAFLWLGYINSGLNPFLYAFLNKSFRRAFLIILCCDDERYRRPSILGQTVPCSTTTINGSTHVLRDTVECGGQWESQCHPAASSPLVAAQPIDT

`O=C(O)CO` [GLYCOLIC ACID]: the IC50 result (in assay [1]; in assay [2]; in assay [3]; at Adenosine receptor A2a; in assay [4]) was “Not Active” each time. Besides, the Ki result in assay [1] and in assay [4] was “Not Active” throughout.

Consider `CN(Cc1cc(Br)cc(Br)c1N)C1CCCCC1` [BROMHEXINE], for which the IC50 entry (in assay [1]; in assay [2]; in assay [3]; on Adenosine receptor A2a; in assay [4]) was “Not Active” throughout. Besides, the Ki result in assay [1] and in assay [4] was “Not Active” throughout.

Consider `CC12CCC(CC1)C(C)(C)O2` [EUCALYPTOL], for which the IC50 entry (in assay [1]; in assay [2]; in assay [3]; at Adenosine receptor A2a; in assay [4]) was “Not Active” throughout. For the same compound, the Ki entry in assay [1] and in assay [4] was “Not Active” throughout.

As to `C[C@@H]1[C@H](O)[C@@H](C)/C=C/C=C/C=C/C=C/C=C/C=C/C=C/[C@H](O[C@@H]2O[C@H](C)[C@@H](O)[C@H](N)[C@@H]2O)C[C@@H]2O[C@](O)(C[C@@H](O)C[C@@H](O)[C@H](O)CC[C@@H](O)C[C@@H](O)CC(=O)O[C@H]1C)C[C@H](O)[C@H]2C(=O)O` [AMPHOTERICIN B], the IC50 result (in assay [1]; in assay [2]; in assay [3]; on Adenosine receptor A2a; in assay [4]) was “Not Active” throughout. Further, the Ki entry in assay [1] and in assay [4] was “Not Active” in each case.

With `Cc1cc(C(C)(C)C)c(O)c(C)c1CC1=NCCN1` [OXYMETAZOLINE], the IC50 result (in assay [1]; in assay [2]; in assay [3]; on Adenosine receptor A2a; in assay [4]) was “Not Active” throughout. Besides, the Ki entry in assay [1] and in assay [4] was “Not Active” each time.

For `CCN(CCO)CCCC(C)Nc1ccnc2cc(Cl)ccc12` (stereo not given) [HYDROXYCHLOROQUINE], the IC50 result (in assay [1]; in assay [2]; in assay [3]; on Adenosine receptor A2a; in assay [4]) was “Not Active” in each case. Further, the Ki result in assay [1] and in assay [4] was “Not Active” each time.

With `CC12CCC(CC1=O)C2(C)C` (stereo not given) [CAMPHOR], the IC50 entry (in assay [1]; in assay [2]; in assay [3]; on Adenosine receptor A2a; in assay [4]) was “Not Active” each time. In addition, the Ki entry in assay [1] and in assay [4] was “Not Active” throughout.

On to `CCC1(c2ccccc2)C(=O)NC(=O)NC1=O` [PHENOBARBITAL], for which the IC50 result (in assay [1]; in assay [2]; in assay [3]; on Adenosine receptor A2a; in assay [4]) was “Not Active” in each case. Moreover, the Ki result in assay [1] and in assay [4] was “Not Active” in each case.

For `C[N+](C)(C)CCOP(=O)([O-])OC[C@H](O)CO`, the IC50 result (in assay [1]; in assay [2]; in assay [3]; at Adenosine receptor A2a; in assay [4]) was “Not Active” in each case. The Ki entry in assay [1] and in assay [4] was “Not Active” in each case.

Consider `Oc1ccccc1` [PHENOL], for which the half-maximal inhibitory concentration (IC50) result (in assay [1]; in assay [2]; in assay [3]; at Adenosine receptor A2a; in assay [4]) was “Not Active” each time. For the same compound, the Ki result in assay [1] and in assay [4] was “Not Active” each time.

On to `Nc1nc(F)nc2c1ncn2[C@@H]1O[C@H](CO)[C@@H](O)[C@@H]1O` [FLUDARABINE], for which the IC50 entry (in assay [1]; in assay [2]; in assay [3]; at Adenosine receptor A2a; in assay [4]) was “Not Active” each time. Further, the Ki result in assay [1] and in assay [4] was “Not Active” in each case.

With `c1ccc(Cn2ccnc2)cc1`, the IC50 result (in assay [1]; in assay [2]; in assay [3]; at Adenosine receptor A2a; in assay [4]) was “Not Active” each time. Also, the Ki entry in assay [1] and in assay [4] was “Not Active” throughout.

Take `Nc1nc(N)c2nc(CNc3ccc(C(=O)N[C@@H](CCC(=O)O)C(=O)O)cc3)cnc2n1` [AMINOPTERIN]: the IC50 entry (in assay [1]; in assay [2]; in assay [3]; at Adenosine receptor A2a; in assay [4]) was “Not Active” throughout. Also, the Ki entry in assay [1] and in assay [4] was “Not Active” each time.

Consider `C=C(Cl)Cl` [1,1-DICHLOROETHENE], for which the IC50 result (in assay [1]; in assay [2]; in assay [3]; at Adenosine receptor A2a; in assay [4]) was “Not Active” throughout. Besides, the Ki entry in assay [1] and in assay [4] was “Not Active” in each case.

Consider `Oc1ncnc2[nH]ncc12` [ALLOPURINOL], for which the IC50 entry (in assay [1]; in assay [2]; in assay [3]; at Adenosine receptor A2a; in assay [4]) was “Not Active” in each case. For the same compound, the Ki entry in assay [1] and in assay [4] was “Not Active” each time.

Take `ClC1=C(Cl)[C@]2(Cl)[C@@H]3[C@@H]4C[C@@H]([C@H]5O[C@@H]45)[C@@H]3[C@@]1(Cl)C2(Cl)Cl` [DIELDRIN]: the IC50 – broadly, the point on the concentration scale where inhibition reaches its midpoint – in assay [1] is “Not Active”; in assay [2], “Not Active”; in assay [3] it was “Not Active”; at Adenosine receptor A2a, “Not Active”; in assay [4] (read-out: IC50) it was 335 nM. Besides, the Ki (in general, a dissociation constant, usually derived from enzyme kinetics or from competition with a known ligand) in assay [1] is “Not Active”; in assay [4] (read-out: Ki), 300 nM.

As to `CC1(COc2ccc(CC3SC(=O)NC3=O)cc2)CCCCC1` (stereo not given) [CIGLITAZONE], the IC50 result (in assay [1]; in assay [2]; in assay [3]; at Adenosine receptor A2a; in assay [4]) was “Not Active” throughout. For the same compound, the Ki result in assay [1] and in assay [4] was “Not Active” each time.

Consider `OC[C@H]1O[C@@H]2O[C@H]3[C@H](O)[C@@H](O)[C@@H](O[C@H]4[C@H](O)[C@@H](O)[C@@H](O[C@H]5[C@H](O)[C@@H](O)[C@@H](O[C@H]6[C@H](O)[C@@H](O)[C@@H](O[C@H]7[C@H](O)[C@@H](O)[C@@H](O[C@H]8[C@H](O)[C@@H](O)[C@@H](O[C@H]1[C@H](O)[C@H]2O)O[C@@H]8CO)O[C@@H]7CO)O[C@@H]6CO)O[C@@H]5CO)O[C@@H]4CO)O[C@@H]3CO` [BETADEX], for which the IC50 result (in assay [1]; in assay [2]; in assay [3]; at Adenosine receptor A2a; in assay [4]) was “Not Active” in each case. Besides, the Ki result in assay [1] and in assay [4] was “Not Active” each time.

Turning to `COc1ccc(Cl)cc1C(=O)NCCc1ccc(S(=O)(=O)NC(=O)NC2CCCCC2)cc1` [GLYBURIDE], the IC50 result (in assay [1]; in assay [2]; in assay [3]; on Adenosine receptor A2a; in assay [4]) was “Not Active” in each case. In addition, the Ki result in assay [1] and in assay [4] was “Not Active” in each case.

In the case of `COC(=O)Nc1nc2ccc(Sc3ccccc3)cc2[nH]1` [FENBENDAZOLE], the IC50 result (in assay [1]; in assay [2]; in assay [3]; on Adenosine receptor A2a; in assay [4]) was “Not Active” each time. Moreover, the Ki result in assay [1] and in assay [4] was “Not Active” in each case.
